Measurements reported in US7285555B2, “6-aryl-7-halo-imidazo[1,2-a]pyrimidines as anticancer agents” (Wyeth Holdings Corporation, priority 2003, dated 2007).

How the values were obtained:
COLO 205 cells = assay: MTS cytotoxicity test procedure with COLO 205 cells; type: cell-based; conditions: Homo sapiens, 72 h, MTS assay, three days of culture
Protocol: The MTS assay, which is sold in kit form by Promega (Madison, Wis.; CellTiter 96 AQueous Non-Radioactive Cell Proliferation Assay), is based on the conversion by viable cells, but not by dead cells, of the tetrazolium salt, MTS (3-(4,5-dimethylthiazol-2-yl)-5-(3-carboxymethoxyphenyl)-2-(4-sulphophenyl)-2H-tetrazolium, inner salt), into a water-soluble colored formazan which is detected by spectrophotometry. Compounds are tested at nine concentrations, in order to determine IC50 values. For the test procedure, cells are harvested by trypsinization (or, in the case of non-adherent cells, by simple resuspension), washed, counted and distributed to wells of 96-well flat-bottom microtiter plates at 1000 cells per well in 200 μL of medium. In addition, one row of wells on a separate plate receives cells as above (“time 0” plate). All plates are incubated at 370 in humidified 5% CO2 in air for about 24 hr.
On day 2, compounds for test are diluted and added to wells. Compounds are dissolved in DMSO at 10 mg/mL. For each compound, nine serial 2-fold dilutions are prepared in DMSO. Ten μL of each dilution in DMSO is transferred to 100 μL of medium, mixed well, and then 5 μL of this dilution is transferred in quadruplicate to wells containing cells. The final high concentration of each compound is typically 1-5 μM. Plates are returned to the incubator for three days. At the time of drug addition to the experimental plates, the MTS assay is run on the “time 0” plate. This gives the “time 0 MTS value” which is related to the number of viable cells per well at the time of drug addition.
After three days of culture with test compounds (day 5 overall), the MTS assay is done on all wells of the experimental plates. The absorbance values of the quadruplicate sample wells are averaged and divided by the average of the “time 0” values. The average of control wells without drug, divided by the average “time 0” value, gives the maximal relative increase in MTS color yield due to cell growth during the final three days of culture. The average of control wells with high drug concentration, divided by the “time 0” value, gives the minimal relative color yield for cells that were completely killed. The nine values for each compound are plotted against concentration, and the concentration that produces a relative color yield half way between the maximum and minimum is taken as the IC50 value.
COLO 205 is a human colon carcinoma cell line that is used for comparative testing of the examples of this invention and several reference compounds (Table 1). This line is sensitive to paclitaxel and vincristine.

KB cells = assay: SRB cytotoxicity test procedure with KB cells; type: cell-based; conditions: Homo sapiens, SRB assay, means of 2 independent experiments
Text: Human cancer cell lines, unless otherwise noted, are obtained from the American Type Culture Collection (Rockville, Md.). […]
The SRB standard cytotoxicity assay is done according to previously reported methods (Discafani, C. M., Carroll, M. L., Floyd Jr., M. B. F., Hollander, I. J., Husain, Z., Johnson, B. D., Kitchen, D., May, M. K., Malo, M. S., Minnick Jr., A. A., Nilakantan, R., Shen, R., Wang Y-F., Wissner, A., Greenberger, L. M. Irreversible inhibition of epidermal growth factor receptor tyrosine kinase with in vivo activity by N-[4-[3-bromophenyl)amino]-6-quinaxolinyl]-2-butynamide (CL-387,785). […] Absorbance is read on a Victor V multi-label plate reader (Perkin Elmer, Gaithersburg, Md.). […]

KB-8-5 cells = assay: SRB cytotoxicity test procedure with KB-8-5 cells; type: cell-based, human; conditions: SRB assay
Text: (§1) Human cancer cell lines, unless otherwise noted, are obtained from the American Type Culture Collection (Rockville, Md.). The following drug-sensitive parental cell lines, and their derived drug-resistant counterparts, are obtained from the originators as listed: (a) S1 (parental line from a subclone of human colon carcinoma line LS174T) and derived S1-M1-3.2 (herein called S1-M1) which expresses the MXR drug transporter protein, are provided by Dr. L. Greenberger, Wyeth Research (Rabindran, S. K., He, H., Singh, M., Brown, E., Collins, K. I., Annable, T., and Greenberger, L. M. Reversal of a novel multidrug resistance mechanism in human colon carcinoma cells by fumitremorgin C. Cancer Res., 58: 5850-5858,1998); (b) parental HL-60 human promyelocytic leukemia line and derived HL-60/ADR, which expresses the MRP1 drug transporter protein, are provided by Dr. M. Center, University of Kansas (McGrath, T., and Center, M. S. Adriamycin resistance in HL60 cells in the absence of detectable P-glycoprotein. Biochem. Biophys. […] J. Biol. Chem., 261: 7762-7770, 1986) via Dr. L. Greenberger, Wyeth Research.
The SRB standard cytotoxicity assay is done according to previously reported methods (Discafani, C. M., Carroll, M. L., Floyd Jr., M. B. F., Hollander, I. J., Husain, Z., Johnson, B. D., Kitchen, D., May, M. K., Malo, M. S., Minnick Jr., A. A., Nilakantan, R., Shen, R., Wang Y-F., Wissner, A., Greenberger, L. M. Irreversible inhibition of epidermal growth factor receptor tyrosine kinase with in vivo activity by N-[4-[3-bromophenyl)amino]-6-quinaxolinyl]-2-butynamide (CL-387,785). Biochem. Pharmacol., 57: 917-925, 1999). Briefly, cells are plated in 100 μL of medium in 96-well flat-bottom microtiter plates in the morning of day 1 and allowed to adhere to the plates for 2-6 hr. Compounds are serially diluted into medium as 2× stocks and 100 μL of these stocks are added to cells in duplicate. Compounds are incubated with cells for 3 days. At the end of the incubation period the sulforhodamine B (SRB) assay, which measures protein content as an assessment of cell survival, is performed as described previously (Skehan, P., Storeng, R., Scudiero, D., Monks, A., McMahon, J., Vistica, D., Warren, J. T., Bokesch, H., Kenney, S., Boyd, M. R. New calorimetric cytotoxicity assay for anticancer-drug screening. J. Natl. Cancer Inst., 82:1107-1112, 1990) with some modifications. Medium is gently decanted from plates and replaced with 200 μL per well of cold serum-free medium containing a final concentration of 10% trichloroacetic acid. The plates are incubated for 1 hr at 40, washed 5 times in cold distilled water, and air-dried overnight. […] Absorbance is read on a Victor V multi-label plate reader (Perkin Elmer, Gaithersburg, Md.). […]

KB-V1 cells = assay: SRB cytotoxicity test procedure with KB-V1 cells; type: cell-based, human; conditions: SRB assay
Text: as §1
The SRB standard cytotoxicity assay is done according to previously reported methods (Discafani, C. M., Carroll, M. L., Floyd Jr., M. B. F., Hollander, I. J., Husain, Z., Johnson, B. D., Kitchen, D., May, M. K., Malo, M. S., Minnick Jr., A. A., Nilakantan, R., Shen, R., Wang Y-F., Wissner, A., Greenberger, L. M. Irreversible inhibition of epidermal growth factor receptor tyrosine kinase with in vivo activity by N-[4-[3-bromophenyl)amino]-6-quinaxolinyl]-2-butynamide (CL-387,785). Biochem. Pharmacol., 57: 917-925, 1999). Briefly, cells are plated in 100 μL of medium in 96-well flat-bottom microtiter plates in the morning of day 1 and allowed to adhere to the plates for 2-6 hr. Compounds are serially diluted into medium as 2× stocks and 100 μL of these stocks are added to cells in duplicate. Compounds are incubated with cells for 3 days. At the end of the incubation period the sulforhodamine B (SRB) assay, which measures protein content as an assessment of cell survival, is performed as described previously (Skehan, P., Storeng, R., Scudiero, D., Monks, A., McMahon, J., Vistica, D., Warren, J. T., Bokesch, H., Kenney, S., Boyd, M. R. New calorimetric cytotoxicity assay for anticancer-drug screening. J. Natl. Cancer Inst., 82:1107-1112, 1990) with some modifications. Medium is gently decanted from plates and replaced with 200 μL per well of cold serum-free medium containing a final concentration of 10% trichloroacetic acid. The plates are incubated for 1 hr at 40, washed 5 times in cold distilled water, and air-dried overnight. The fixed cells are stained for 10 min with 80 μL per well of 0.04% SRB solution prepared in 1% glacial acetic acid. Staining solution is decanted, plates are washed 5 times in 1% glacial acetic acid, and then air-dried until completely dry. Stained cell product is dissolved in 150 μL per well of 10 mM Trizma Base with shaking for 20 minutes. Absorbance is read on a Victor V multi-label plate reader (Perkin Elmer, Gaithersburg, Md.).
The KB lines express different amounts of the P-glycoprotein (MDR1) membrane pump which produces resistance to the action of many cytotoxic compounds, including paclitaxel and vincristine. The parental KB line expresses no P-glycoprotein, KB-8-5 expresses moderate levels of the protein, and KB-V1 expresses very high levels.

Work on `CN(C)CCCOc1cc(F)c(-c2c(Cl)nc3nccn3c2NCC(F)(F)F)c(F)c1` [Example 4, 7-chloro-6-{4-[3-(dimethylamino)propoxy]-2,6-difluorophenyl}-N-(2,2,2-trifluoroethyl)imidazo[1,2-a]pyrimidin-5-amine] yielded an IC50 (COLO 205 cells) of 88 nM, an IC50 (KB cells) of 24 nM and an IC50 (KB-8-5 cells; Homo sapiens, KB 8.5 cells, means of 2 independent experiments) of 59 nM. For the same compound, the “Ratio 8.5/KB” value (KB-8-5 cells; IC50 on KB 8.5 cells/IC50 on KB cells) was 2.5, the IC50 (KB-V1 cells; Homo sapiens, KB-V1, KB VI cells, means of 2 independent experiments) was 2390 nM and the “Ratio VI/KB” value (KB-V1 cells; IC50 on KB VI cells/IC50 on KB cells) was 99. The melting point was 52 to 55 °C.
